In US6017911A, “Pyridonecarboxylic acid derivatives and intermediates for the synthesis thereof” (Dainippon Pharmaceutical Co., Ltd., priority 1996, dated 2000) one finds MIC and ED50 data, which are given here for nine compounds.

The test system of experiment [1] is Escherichia coli NIHJ JC-2. The experiment in a line: In vitro antibacterial activity (MIC), Escherichia coli NIHJ JC-2. The experiment is classed as cell-based. To be noted: NIHJJC2, read-out: Minimum inhibitory concentration (MIC).
The test system of experiment [2] is Staphylococcus aureus MS16405. The experiment in a line: In vitro antibacterial activity (MIC), Staphylococcus aureus MS16405. It is filed as cell-based.
Experiment [3] relates to Staphylococcus aureus 50774. The experiment can be described thus: Effect on systemic infection in mice. To be noted: 168 h; Staphylococcus aureus 50774 i.p. infection; oral, twice (immediately and 6 h after infection); survival 7 days after infection. The experiment is classed as in vivo, mice (male Std-ddy strain). As for the experimental part:
The effects (ED50; mg/kg) on systemic infection in mice were determined as follows: Male Std-ddy strain mice (weighing about 20 g) were infected with each of the pathogenic bacteria shown in Table 2 by administering 5×10^3 viable cells intraperitoneally to each mouse. Then, a suspension of each test compound in 0.4% carboxymethylcellulose was orally administered twice, i.e., immediately after infection and 6 hours after infection. Seven days after infection, the ED50 value was calculated from the survival rate of each mouse group by probit analysis.
As a reference compound, there was used enoxacin [1-ethyl-6-fluoro-1,4-dihydro-4-oxo-7-(1-piperazinyl-1,8-naphthyridine-3-carboxylic acid; hereinafter abbreviated as ENX] that is an excellent antibacterial agent currently on the market.
The test compounds shown in the following Tables 1 and 2 are identified by the respective numbers of the Examples which will be given later.

The test system of experiment [4] is Pseudomonas aeruginosa No 12. The experiment in a line: In vitro antibacterial activity (MIC), Pseudomonas aeruginosa No 12. To be noted: NO12, read-out: Minimum inhibitory concentration (MIC). The experiment is classed as cell-based.
Experiment [5] concerns Staphylococcus aureus 50774. The experiment can be described thus: In vitro antibacterial activity (MIC), Staphylococcus aureus 50774. The experiment is classed as cell-based. To be noted: Staphylococcus aureus 50774; read-out: Minimum inhibitory concentration (MIC).
The mark [6] stands for this setting: Staphylococcus aureus, MS16405, read-out: Minimum inhibitory concentration (MIC).
Where [7] appears, read: Staphylococcus aureus MS16405, read-out: Minimum inhibitory concentration (MIC).

In brackets after ≈: the same amount, converted by molar mass. Read-outs that look alike come from different tables or passages of the source.

What is called ED50 is the dose that gives a 50% effect, or the effect in half of the subjects. High values mean weaker potency, low ones greater potency. Turning to `COc1c(N2C[C@H](N)[C@H]3OCC[C@H]32)c(F)cc2c(=O)c(C(=O)O)cn([C@@H]3C[C@@H]3F)c12` (relative stereo) [Example 2, 7-[(1R*,5R*,8S*)-8-amino-2-oxa-6-azabicyclo[3.3.0]oct-6-yl]-6-fluoro-1-[(1R,2S)-2-fluorocyclopropyl]-1,4-dihydro-8-methoxy-4-oxoquinoline-3-carboxylicacid], the MIC in experiment [1] was found to be 0.013 µg/mL (≈ 0.0308 µM); in experiment [2] (setting [6]), 0.39 µg/mL (≈ 0.925 µM); in experiment [4] it was 0.39 µg/mL (≈ 0.925 µM); in experiment [5], 0.006 µg/mL (≈ 0.0142 µM). In addition, the 50% effect level in experiment [3] (ED50) was put at a dose of 0.383 mg/kg.

Regarding `COc1c(N2C[C@H](N)[C@H]3OCC[C@H]32)c(F)c(N)c2c(=O)c(C(=O)O)cn(C3CC3)c12` (relative stereo) [Example 4], the MIC in experiment [1] amounted to 0.025 µg/mL (≈ 0.0597 µM); in experiment [2] (setting [6]), 0.39 µg/mL (≈ 0.932 µM); in experiment [4], 0.78 µg/mL (≈ 1.86 µM); in experiment [5], 0.006 µg/mL (≈ 0.0143 µM). In experiment [3], the median effective dose (ED50) is 0.246 mg/kg.

For the compound `COc1c(N2C[C@@H](N)[C@H]3OCC[C@H]32)c(F)c(N)c2c(=O)c(C(=O)O)cn(C3CC3)c12` (relative stereo) [Example 13], the MIC in experiment [1] came to 0.05 µg/mL (≈ 0.119 µM); in experiment [2] (setting [7]), 1.56 µg/mL (≈ 3.73 µM); in experiment [4] it was 0.78 µg/mL (≈ 1.86 µM); in experiment [5], 0.013 µg/mL (≈ 0.0311 µM). This compound gave an ED50 in experiment [3] of 0.778 mg/kg.

As for `CN[C@H]1CN(c2c(F)c(N)c3c(=O)c(C(=O)O)cn(C4CC4)c3c2OC)[C@@H]2CCO[C@H]12` (relative stereo) [Example 9], the MIC in experiment [1] came to 0.05 µg/mL (≈ 0.116 µM); in experiment [2] (setting [7]), 1.56 µg/mL (≈ 3.61 µM); in experiment [4], 1.56 µg/mL (≈ 3.61 µM); in experiment [5], 0.025 µg/mL (≈ 0.0578 µM). The same compound returned an ED50 in experiment [3] of 0.415 mg/kg.

Take `COc1c(N2C[C@@H](N)[C@H]3OCC[C@H]32)c(F)c(C)c2c(=O)c(C(=O)O)cn(C3CC3)c12` (relative stereo) [Example 16]: the MIC in experiment [1] amounted to 0.1 µg/mL (≈ 0.24 µM); in experiment [2] (setting [7]), 1.56 µg/mL (≈ 3.74 µM); in experiment [4], 1.56 µg/mL (≈ 3.74 µM); in experiment [5], 0.006 µg/mL (≈ 0.0144 µM). This compound also gave an ED50 in experiment [3] of 0.78 mg/kg.

With `CN[C@H]1CN(c2c(F)c(C)c3c(=O)c(C(=O)O)cn(C4CC4)c3c2OC)[C@@H]2CCO[C@H]12` (relative stereo) [Example 8], the MIC in experiment [1] is 0.2 µg/mL (≈ 0.464 µM); in experiment [2] (setting [7]), 3.13 µg/mL (≈ 7.25 µM); in experiment [4], 1.56 µg/mL (≈ 3.62 µM); in experiment [5] it was 0.013 µg/mL (≈ 0.0301 µM). In experiment [3], it took a dose of 0.345 mg/kg to reach the 50% effect level (ED50).

Consider `N[C@H]1CN(c2c(F)cc3c(=O)c(C(=O)O)cn(C4CC4)c3c2OC(F)F)[C@@H]2CCO[C@@H]21` (relative stereo) [Example 14], for which the MIC in experiment [1] stood at 0.025 µg/mL (≈ 0.0569 µM); in experiment [2] (setting [7]), 1.56 µg/mL (≈ 3.55 µM); in experiment [4], 1.56 µg/mL (≈ 3.55 µM); in experiment [5] it was 0.025 µg/mL (≈ 0.0569 µM). In addition, in experiment [3], the ED50 is no more than 0.78 mg/kg.

Consider `Nc1c(F)c(N2C[C@H](N)[C@H]3OCC[C@H]32)c(F)c2c1c(=O)c(C(=O)O)cn2C1CC1` (relative stereo) [Example 3, 5-Amino-7-[(1R*,5R*,8S*)-8-amino-2-oxa-6-azabicyclo[3.3.0]oct-6-yl]-1-cyclopropyl-6,8-difluoro-1,4-dihydro-4-oxoquinoline-3-carboxylic acid], for which the MIC was found to be 0.006 µg/mL (≈ 0.0148 µM) in experiment [1], 1.56 µg/mL (≈ 3.84 µM) in experiment [2] (setting [7]), 0.2 µg/mL (≈ 0.492 µM) in experiment [4] and 0.013 µg/mL (≈ 0.032 µM) in experiment [5]. Further, the 50% effect level in experiment [3] (ED50) was put at a dose of 0.398 mg/kg.

On to `COc1c(N2C[C@@H](N)[C@H]3OCCC[C@H]32)c(F)cc2c(=O)c(C(=O)O)cn(C3CC3)c12` (relative stereo) [Example 19], for which the MIC in experiment [1] was 0.1 µg/mL (≈ 0.24 µM); in experiment [2] (setting [7]) it was 0.78 µg/mL (≈ 1.87 µM); in experiment [4], 1.56 µg/mL (≈ 3.74 µM); in experiment [5] it was 0.013 µg/mL (≈ 0.0311 µM). This compound also gave a 50% effective dose (ED50) in experiment [3] of 0.928 mg/kg.
